28 compounds from US8859466B2, “Oxaspirocyclic spiro-substituted tetramic acid and tetronic acid derivatives” (Bayer CropScience AG, priority 2007, dated 2014) can be followed below.

Series [1] relates to green peach aphid (Myzus persicaei). Kind of series: Myzus persicae test (MYZUPE) with ammonium salts and/or penetrants. The format is in vivo. To be noted: for % efficacy after 6 days +AMS: +AMS (ammonium sulphate) 1000 ppm; for % efficacy after 6 days +RME: +RME (rapeseed oil methyl ester) 1000 ppm; for % efficacy after 6 days +RME + AMS: each 1000 ppm. How it is done:
Myzus persicae Test (MYZUPE)
Solvent: 7 parts by weight of dimethylformamide
(§1) Emulsifier: 2 parts by weight of alkylaryl polyglycol ether
(§2) To produce a suitable preparation of active compound, 1 part by weight of active compound is mixed with the stated amounts of solvents and emulsifier, and the concentrate is diluted with emulsifier-containing water to the desired concentration. For the required application of ammonium salts, penetrants or ammonium salts and penetrants, these are in each case added with a pipette after dilution of the respective finished solution of the preparation at a concentration of 1000 ppm.
Paprika plants (Capsicum annuum) which are heavily infested by the green peach aphid (Myzus persicaei) are treated by being sprayed with the preparation of active compound of the desired concentration.
After the desired period of time, the kill in % is determined. 100% means that all animals have been killed; 0% means that none of the animals have been killed.

Series [2] deals with cotton aphid (Aphis gossypii). Put plainly: Aphis gossypii test (APHIGO) with ammonium salts and/or penetrants. The format is in vivo. To be noted: for % efficacy after 6 days +AMS: +AMS (ammonium sulphate) 1000 ppm; for % efficacy after 6 days +RME: +RME (rapeseed oil methyl ester) 1000 ppm; for % efficacy after 6 days +RME + AMS: each 1000 ppm. The procedure:
Aphis gossypii Test (APHIGO)
Solvents: 7 parts by weight of dimethylformamide
as §1, §2
Cotton leaves (Gossypium hirsutum) which are heavily infested by the cotton aphid (Aphis gossypii) are sprayed with an active compound preparation of the desired concentration.
After the desired period of time, the kill in % is determined. 100% means that all aphids have been killed; 0% means that none of the aphids have been killed.

The test system of another series is Summer wheat. Kind of series: Herbicidal post-emergence action with use of safeners, container trials with cereal in a greenhouse. To be noted: 28 days after application. It is filed as in vivo. How it is done:
(§3) 1. Herbicidal Post-Emergence Action • Seeds of monocotyledonous and dicotyledonous weed and crop plants are placed in sandy loam in wood fibre pots or in plastic pots, covered with soil and cultivated in a greenhouse, during the vegetation period also outdoors outside of the greenhouse, under good growth conditions. 2 to 3 weeks after sowing, the test plants are treated at one- to three-leaf stage. The test compounds, formulated as wettable powders (WP) or liquid (EC) are, at a water application rate of 300 l/ha (converted), with wetting agent (0.2 to 0.3%) added, sprayed at various dosages onto the plants and the surface of the soil. 3 to 4 weeks after treatment of the test plants, the effect of the preparations is rated visually in comparison to untreated controls (herbicidal activity in percent: 100% activity=the plants have died, 0% activity=like control plants).
(§4) Use of Safeners: • If it is additionally to be tested as to whether safeners can improve the plant compatibility of test substances in the case of crop plants, the following options are used for applying the safeners: • seeds of the crop plants are, before sowing, dressed with the safener substance (the amount of safener stated in percent, based on the weight of the seed) • before application of the test substances, the crop plants are sprayed with the safener at a certain application rate per hectare (usually 1 day before the application of the test substances) • the safener is applied together with the test substance as a tank mix (the amount of safener stated in g/ha or as a ratio, based on the herbicide). • Container trials with cereal in a greenhouse • mefenpyr 1 day prior to herbicide application

Series [3] in a line: Determination of the logP values by HPLC on a reverse-phase column (C 18). It is filed as physicochemical. How it is done: Determination of the logP Values
The logP values given in the table were determined in accordance with EEC Directive 79/831 Annex V.A8 by HPLC (high performance liquid chromatography) on a reverse-phase column (C 18). Temperature: 55° C.
Mobile phases for the determination in the acidic range (pH 3.4):
Mobile phase A: acetonitrile+1 ml of formic acid/liter. Mobile phase B: water+0.9 ml of formic acid/liter.
Gradient: from 10% mobile phase A/90% mobile phase B to 95% mobile phase A/5% mobile phase B over 4.25 min.
Calibration was carried out using unbranched alkan-2-ones (having 3 to 16 carbon atoms) with known logP values (determination of the logP values by the retention times using linear interpolation between two successive alkanones). The lambda max values were determined in the maxima of the chromatographic signals using the UV spectra from 200 nm to 400 nm.

In the next series the test system is cereal. Kind of series: Herbicidal post-emergence action with use of safeners, container trials with cereal in a greenhouse (other cereal crop plants). As to conditions: 10 days after application. It is filed as in vivo. How it is done: as §3, §4
Setting [4] is: HPLC on a reverse-phase column (C 18), separated α/β isomers.

Molecules are shown by their SMILES.

On to `Cc1cc(C)c(C2=C(O)C3(CCC4(CCCO4)CC3)NC2=O)c(C)c1` (mixture of isomers) [Example I-1-a-4], for which the “% efficacy after 6 days +AMS” value is recorded as 0% in series [1] (0.8 ppm), 80% in series [1] (4 ppm), 0% in series [2] (0.8 ppm) and 75% in series [2] (4 ppm). Further, the “% efficacy after 6 days +RME” value in series [1] (0.8 ppm) was found to be 60%; in series [1] (4 ppm), 90%; in series [2] (0.8 ppm), 15%; in series [2] (4 ppm) it was 75%. Moreover, the “% efficacy after 6 days +RME + AMS” value turned out to be 99% in series [1] (0.8 ppm), 98% in series [1] (4 ppm), 45% in series [2] (0.8 ppm) and 80% in series [2] (4 ppm). The “% efficacy after 6 days without additive” value is 10% in series [1] (0.8 ppm), 75% in series [1] (4 ppm), 10% in series [2] (0.8 ppm) and 60% in series [2] (4 ppm).

Consider `CCc1cc(Cl)cc(OC)c1C1=C(O)C2(CCC3(CCCO3)CC2)NC1=O` (mixture of isomers) [Example I-1-a-11], for which the “Summer wheat observed (%)” value with Summer wheat (12.5 g of a.i./ha) is 65%; in the series with Summer wheat (25 g of a.i./ha), 70%; in the series on Summer wheat (50 g of a.i./ha) it was 80%; in the series on Summer wheat (100 g of a.i./ha), 95%.

Consider `Cc1cc(Br)cc(C)c1C1=C(O)C2(CCC3(CCCO3)CC2)NC1=O` (mixture of isomers) [Example I-1-a-8], for which, in series [1] (0.8 ppm), the “% efficacy after 6 days +AMS” value was 0%, the “% efficacy after 6 days +RME” value was found to be 20%, the “% efficacy after 6 days +RME + AMS” value was determined as 99% and the “% efficacy after 6 days without additive” value is given as 0%. For the same compound, in series [1] (4 ppm), the “% efficacy after 6 days +AMS” value was 98%, the “% efficacy after 6 days +RME” value worked out at 99%, the “% efficacy after 6 days +RME + AMS” value is listed as 100% and the “% efficacy after 6 days without additive” value was 45%.

Regarding `COc1cc(C)cc(C)c1C1=C(OC(=O)C(C)C)[C@]2(CC[C@@]3(CCCO3)CC2)OC1=O` [Example I-2-b-1], the chromatographic logP in series [3] (reverse-phase HPLC column (C 18), HPLC, reverse-phase C 18, acidic range (pH 3.4), 55° C., read-out: log P) was 4.12.

For `Cc1ccc(-c2ccc(Cl)cc2)c(C)c1C1=C(OC(=O)C(C)C)C2(CCC3(CCCO3)CC2)OC1=O` (stereo not shown) [Example I-2-b-15], the “log P*” value in series [3] (compounds of formula (I-2-b)) was determined as 5.63.

As to `Cc1cc(C2=C(O)C3(CCC4(CCCO4)CC3)OC2=O)c(Cl)cc1Cl` (single isomer, unassigned) [Example I-2-a-41], the “log P*” value in series [3] (setting [4]) amounted to 3.14.

As to `CCc1cc(Cl)c(C2=C(O)C3(CCC4(CCCO4)CC3)OC2=O)c(Br)c1` (single isomer, unassigned) [Example I-2-a-39], in series [3] (setting [4]), the “log P*” value was 3.26.

Take `Cc1cc(C2=C(O)C3(CCC4(CCCO4)CC3)OC2=O)c(C)cc1Br` (single isomer, unassigned) [Example I-2-a-30]: the “log P*” value in series [3] (setting [4]) came out at 3.28.

For the compound `COc1cc(C)cc(C)c1C1=C(O)C2(CCC3(CCCO3)CC2)OC1=O` (single isomer, unassigned) [Example I-2-a-11], in series [3] (setting [4]), the “log P*” value was 2.66.

In the case of `O=C1OC2(CCC3(CCCO3)CC2)C(O)=C1c1cc(-c2ccc(F)cc2)ccc1Cl` (stereo not shown) [Example I-2-a-50], the “log P*” value in series [3] (setting [4]) amounted to 2.91.

On to `Cc1cc(Cl)cc(C)c1C1=C(O)C2(CCC3(CCCO3)CC2)NC1=O` (mixture of isomers) [Example I-1-a-6], for which, in series [2] (20 ppm), the “% efficacy after 6 days +AMS” value came to 5%, the “% efficacy after 6 days +RME” value is listed as 60%, the “% efficacy after 6 days +RME + AMS” value is reported as 95% and the “% efficacy after 6 days without additive” value amounted to 35%.

With `Cc1ccc(-c2ccc(F)cc2)c(C)c1C1=C(O)C2(CCC3(CCCO3)CC2)OC1=O` (stereo not shown) [Example I-2-a-47], the “log P*” value in series [3] (setting [4]) is 3.20.

`CCc1cc(Cl)cc(CC)c1C1=C(O)C2(CCC3(CCCO3)CC2)OC1=O` (single isomer, unassigned) [Example I-2-a-9]: the “log P*” value in series [3] (setting [4]) amounted to 3.62.

Regarding `CCc1cc(C)cc(CC)c1C1=C(OC(=O)C(C)C)C2(CCC3(CCCO3)CC2)OC1=O` (stereo not shown) [Example I-2-b-24], in series [3] (compounds of formula (I-2-b)), the “log P*” value was found to be 5.79.

In the case of `Cc1cc(C)c(C2=C(O)C3(CCC4(CCCO4)CC3)OC2=O)c(Br)c1` (single isomer, unassigned) [Example I-2-a-32], the “log P*” value in series [3] (setting [4]) is given as 2.48.

Turning to `CCc1cc(C)cc(CC)c1C1=C(O)C2(CCC3(CCCO3)CC2)OC1=O` (single isomer, unassigned) [Example I-2-a-16], the “log P*” value in series [3] (setting [4]) stood at 2.99.

Turning to `O=C1OC2(CCC3(CCCO3)CC2)C(O)=C1c1cc(-c2ccc(F)cc2)ccc1Cl` (stereo not shown) [Example I-2-a-51], the “log P*” value in series [3] (setting [4]) turned out to be 3.42.

On to `CCc1cc(C)cc(C)c1C1=C(O)C2(CCC3(CCCO3)CC2)OC1=O` (single isomer, unassigned) [Example I-2-a-14], for which the “log P*” value in series [3] (setting [4]) was 2.73.

Take `CCc1cc(Br)cc(Cl)c1C1=C(O)C2(CCC3(CCCO3)CC2)OC1=O` (single isomer, unassigned) [Example I-2-a-37]: the “log P*” value in series [3] (setting [4]) is 3.40.

Regarding `CCOC(=O)OC1=C(c2c(CC)cc(C)cc2CC)C(=O)OC12CCC1(CCCO1)CC2` (stereo not shown) [Example I-2-c-3], the log P (usually a log measure of how a compound divides between an organic and an aqueous phase) in series [3] (HPLC, reverse-phase C 18, acidic range (pH 3.4), 55° C.) is listed as 4.68.

For `Cc1cc(C2=C(O)C3(CCC4(CCCO4)CC3)OC2=O)c(C)cc1Br` (single isomer, unassigned) [Example I-2-a-31], the “log P*” value in series [3] (setting [4]) is 2.77.

Turning to `COc1cc(C)cc(C)c1C1=C(OC(=O)C(C)C)C2(CCC3(CCCO3)CC2)OC1=O` (stereo not shown) [Example I-2-b-2], the “log P*” value in series [3] (compounds of formula (I-2-b)) was determined as 4.60.

Regarding `COc1cc(C)cc(Cl)c1C1=C(O)C2(CCC3(CCCO3)CC2)NC1=O` (mixture of isomers) [Example I-1-a-13], the “Summer barley observed (%)” value is reported as 20% in the series with cereal (12.5 g of a.i./ha), 20% with cereal (25 g of a.i./ha) and 30% in the series on cereal (50 g of a.i./ha).

On to `Cc1ccc(-c2ccc(F)cc2)cc1C1=C(O)C2(CCC3(CCCO3)CC2)OC1=O` (stereo not shown) [Example I-2-a-23], for which the “log P*” value in series [3] (setting [4]) was 3.5.

On to `COc1cccc(C)c1C1=C(O)C2(CCC3(CCCO3)CC2)OC1=O` (single isomer, unassigned) [Example I-2-a-35], for which, in series [3] (setting [4]), the “log P*” value was 2.42.

Take `Cc1ccc(-c2ccc(Cl)cc2)c(C)c1C1=C(O)C2(CCC3(CCCO3)CC2)OC1=O` (stereo not shown) [Example I-2-a-19]: the “log P*” value in series [3] (setting [4]) is listed as 4.06.

Regarding `O=C1OC2(CCC3(CCCO3)CC2)C(O)=C1c1cc(-c2ccc(Cl)cc2)ccc1Cl` (stereo not shown) [Example I-2-a-21], the “log P*” value in series [3] (setting [4]) was 3.79.

Regarding `COc1cc(C)cc(C)c1C1=C(OC(=O)C(C)(C)C)C2(CCC3(CCCO3)CC2)OC1=O` (stereo not shown) [Example I-2-b-21], the “log P*” value in series [3] (compounds of formula (I-2-b)) is recorded as 4.50.
